Legend:
[1] = Index of bioavailability: plasma thrombin time (TT) time course after i.v. bolus and oral treatment of rats; assay type: in vivo, rat; conditions: dose-adjusted AUC of plasma TT, p.o. (fasted conscious rats) relative to i.v. bolus (anesthetized rats)
From the text: Assays are done in duplicate and averaged.
Each sample population represents alternating sequential time points.

human thrombin = human thrombin (Homo sapiens, UniProt P00734); assay: Inhibition of the amidase activity of human thrombin (chromogenic substrate, Kass); assay type: biochemical; conditions: apparent association constant, mean over a range of test compound concentrations; purified human thrombin, substrate N-benzoyl-Phe-Val-Arg-p-nitroanilide, pH 7.4
Procedure: The assay is carried out by mixing 50 μl buffer (0.03M Tris, 0.15M NaCl, pH 7.4) with 25 μl of human thrombin solution (purified human thrombin, Enzyme Research Laboratories, South Bend, Ind., at 8 NIH units/ml) and 25 μl of test compound in a solvent (50% aqueous methanol (v:v)). Then 150 μl of an aqueous solution of the chromogenic substrate (at 0.25 mg/ml) are added and the rates of hydrolysis of the substrate are measured by monitoring the reactions at 405 nm for the release of p-nitroaniline. Standard curves are constructed by plotting free thrombin concentration against hydrolysis rate. The hydrolysis rates observed with test compounds are then converted to "free thrombin" values in the respective assays by use of the standard curves. The bound thrombin (bound to test compound) is calculated by subtracting the amount of free thrombin observed in each assay from the known initial amount of thrombin used in the assay. The amount of free inhibitor in each assay is calculated by subtracting the number of moles of bound thrombin from the number of moles of added inhibitor (test compound).
The Kass value is the hypothetical equilibrium constant for the reaction between thrombin and the test compound (I). [drawing 45]
Kass is calculated for a range of concentrations of test compounds and the mean value reported in units of liter per mole.

SMILES	Index of Bioavailability, Percent Relative Activity [1]	Human Thrombin Inhibition Levels, Kass × 10^6 (l/mole) (human thrombin)
CNCC(Cc1ccccc1)C(=O)N1CCC[C@H]1C(=O)N[C@H](C=O)CCCNC(=N)N.Cl.Cl.O (stereo partly drawn) [Example 3, N-Methyl-3-amino-2-benzylpropionyl-L-Pro-L-Arg Aldehyde Dihydrochloride Monohydrate]	8%	12 × 10^6 l/mole
CNC(CC(=O)N1CCC[C@H]1C(=O)N[C@H](C=O)CCCNC(=N)N)C1CCCCC1.CNC(CC(=O)N1CCC[C@H]1C(=O)N[C@H](C=O)CCCNC(=N)N)C1CCCCC1.Cl.Cl.Cl.Cl.O (stereo partly drawn) [Example 2, N-methyl-3-amino-3-cyclohexyl propionyl-L-Pro-L-Arg aldehyde dihydrochloride hemihydrate]	19%	85 × 10^6 l/mole
Cl.Cl.Cl.N=C(N)NCCC[C@@H](C=O)NC(=O)[C@@H]1CCCN1C(=O)C1CCCCC1N.O (stereo partly drawn) [Example 8, 2-aminocyclohexylcarbonyl-L-Pro-L-Arginine Aldehyde Trihydrochloride Monohydrate]	15%	39 × 10^6 l/mole
Cl.Cl.N=C(N)NCCC[C@@H](C=O)NC(=O)[C@@H]1CCCN1C(=O)C1CCCNC1.O (stereo partly drawn) [Example 5, 3-piperidinocarbonyl-L-Pro-L-Arginine Aldehyde Dihydrochloride Monohydrate]		2 × 10^6 l/mole
CNC(CC(=O)N1CCC[C@H]1C(=O)N[C@H](C=O)CCCNC(=N)N)c1ccccc1.Cl.Cl.O.O (stereo partly drawn) [Example 1, N-methyl-3-amino-3-phenylpropionyl-L-Prolinyl-L-Arginine Aldehyde Dihydrochloride Dihydrate]	28%	70 × 10^6 l/mole
Cl.Cl.N=C(N)NCCC[C@@H](C=O)NC(=O)[C@@H]1CCCN1C(=O)C1CNC2CCCCC21.O (stereo partly drawn) [Example 6, 3-perhydroindolylcarbonyl-L-Pro-L-Arginine Aldehyde Dihydrochloride Monohydrate]		11 × 10^6 l/mole
CNC1CCCCC1C(=O)N1CCC[C@H]1C(=O)N[C@H](C=O)CCCNC(=N)N.Cl.Cl (stereo partly drawn) [Example 7, 2-(N-methyl)aminocyclohexyl-carbonyl-L-Pro-L-Arginine Aldehyde Dihydrochloride]		18.4 × 10^6 l/mole
Cl.Cl.N=C(N)NCCC[C@@H](C=O)NC(=O)[C@@H]1CCCN1C(=O)CN1CCCCC1.O [Example 4, 2-(2-Piperidino)acetyl-L-Pro-L-Arginine Aldehyde Dihydrochloride Monohydrate]		1 × 10^6 l/mole
